The assay has as its system CEM cells HIV-1 protection, formazan growth assay. Put plainly: NCI AIDS Antiviral Assay. The settings on record: for IC50: measured here: growth of uninfected CEM cells. Put shortly:
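Category rules: moderately active means at least 50% protection on retest, and confirmed active means 100% protection reproducibly. The underlying data came from a formazan growth assay in HIV-1-infected CEM cells.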

Among the data in PubChem BioAssay AID179 (DTP/NCI, 2004) are EC50, IC50 and outcome values, retold here.

Active and inactive are the calls of the source.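 Rule for the calls: active = compounds giving half or more protection of infected cells from virus-caused growth loss, again on retest; inactive = the rest.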

As to `CC1=C(C(=O)Nc2ccccc2)C(c2ccc(Cl)c(Cl)c2)C(C(=O)Nc2ccccc2)=C(C)N1`, the EC50 is > 10.7 µM and the IC50 is > 10.7 µM.
As to `CN(C)c1ccc(/C=C2\Oc3cc(O)ccc3C2=O)cc1`, the EC50 is > 200 µM and the IC50 was found to be 45.7 µM.
As to `CC(C)OP(=O)(OC(C)C)C([CH2][Sn]([CH3])([CH3])[Br])P(=O)(OC(C)C)OC(C)C`, the EC50 is > 200 µM and the IC50 came to 8.71 µM.
Take `CCOC(=O)/C(C#N)=C/c1ccccc1Br`: the result was inactive.
As for `CSc1nc(C)c(C(=O)CCN2CCOCC2)s1`, the EC50 was > 200 µM and the IC50 turned out to be 10 µM.
As to `CC1(C)Oc2cc(OCc3ccccc3)ccc2C2Oc3cc(OCc4ccccc4)c(O)cc3C21` (stereo unspecified), the EC50 was > 200 µM and the IC50 came to 79.4 µM.
Taken in the same sequence, the figures for `CSC1=Nc2cc3c(cc2C(=O)N2CC(OC(C)=O)CC12)OCO3` (stereo unspecified) were > 200 µM and > 200 µM.
Taken in the same sequence, the figures for `CC(=O)Nc1ccc(S(=O)(=O)n2oc(=O)c(-c3ccccc3)c2N)cc1` were > 200 µM and 105 µM.
On to `CN(/N=C\c1ccnc2ccccc12)c1ccc([N+](=O)[O-])cc1`, for which the outcome was inactive.
As to `C=CCCCCOC1C=CC(O)C(CO)O1` (stereo unspecified), the EC50 was > 200 µM and the IC50 is > 200 µM.
In the case of `N#CCN1c2ccccc2CCC1Cl` (stereo unspecified), the EC50 was > 200 µM and the IC50 was > 200 µM.
`CCN(CC)CCn1ccc(=O)c2cc3c(=O)ccn(CCN(CC)CC)c3c(C)c21`: the EC50 is > 17 µM and the IC50 is 0.676 µM.
For `Nc1c(Cl)c([N+](=O)[O-])cc2c1OCCCCO2`, the EC50 is > 200 µM and the IC50 turned out to be 123 µM.
`Clc1nncc2sc(-c3ccccc3)nc12`: the EC50 is > 151 µM and the IC50 is 8.32 µM.
Taken in the same sequence, the figures for `O=[N+]([O-])c1cccc2nc3ccccc3c(NCCCCCNc3c4ccccc4nc4cccc([N+](=O)[O-])c34)c12` were 0.0195 µM and 0.0832 µM.
Take `COC(=O)C(=O)C(CC(=O)Nc1cccc(C(F)(F)F)c1)C(=O)OC` (stereo unspecified): the EC50 is > 14.5 µM and the IC50 was > 14.5 µM.
`CC(C)(C)C1CCC2c3c([nH]c4ncccc34)C3C(=O)N(c4ccccc4)C(=O)C3C2C1` (stereo unspecified): the EC50 is > 1.78 µM and the IC50 was > 1.78 µM.
On to `CCOC(=O)c1c(SC(=O)/C=C/c2ccccc2)n(-c2ccccc2)c(=S)n(-c2ccccc2)c1=O`, for which the EC50 is > 200 µM and the IC50 was 79.4 µM.
Turning to `CCOC(=O)NC(=O)c1cn(C(CC)COC(=O)NCCCCCCNC(=O)OCC(CC)n2cc(C(=O)NC(=O)OCC)c(=O)[nH]c2=O)c(=O)[nH]c1=O` (stereo unspecified), the outcome was inactive.
`N#CC(C(=O)C(=O)C(C#N)c1ccc(Br)cc1)c1ccc(Br)cc1` (stereo unspecified): the result was inactive.
Consider `CN(NC(=O)c1cccs1)C1=NCCN1`, for which the EC50 is > 200 µM and the IC50 was > 200 µM.
Turning to `O=C(O)[C@@H]1OCCOCCO[C@@H](C(=O)O)[C@H](C(=O)O)OCCOCCO[C@H]1C(=O)O`, the EC50 was > 562 µM and the 50% inhibitory concentration (IC50) was > 562 µM.
Turning to `CC(C)C(=O)/C=C/c1ccc(Cl)cc1Cl`, the result was inactive.
On to `CC1(C)COC(CCCCCNC2=NCCCCC2)=N1`, for which the EC50 was > 200 µM and the IC50 is > 200 µM.
In the case of `C/C(=N/NC(=S)Nc1ccc(C)cc1)c1ccccn1`, the EC50 was > 0.2 µM and the IC50 stood at 0.0794 µM.
Taken in the same sequence, the figures for `O=c1c2c([nH]c3ccccc13)CSC2` were > 67.6 µM and > 67.6 µM.
With `O=c1[nH][nH]c(=O)n1Cc1ccccc1`, the EC50 is > 200 µM and the IC50 is > 200 µM.
In the case of `O=c1c2cc([N+](=O)[O-])cnc2sn1-c1ccc(Br)cc1`, the EC50 was > 200 µM and the IC50 is 63.1 µM.
Consider `N#CCCN(CCCN(C(=O)Nc1ccccc1)c1ccccc1)C(=O)Nc1ccccc1`, for which the EC50 is > 200 µM and the IC50 was found to be 95.5 µM.
Taken in the same sequence, the figures for `CCO[C@@H]1N(C2CC(N=[N+]=[N-])C(CO)O2)C(=O)NC(=O)[C@@]1(C)Cl` (stereo partly specified) were > 200 µM and > 200 µM.
For the molecule `CC(=O)OCC12CC(CC1OC(C)=O)c1ccccc12` (stereo unspecified), the EC50 was > 251 µM and the IC50 is > 251 µM.
For `CCc1cccc(C)c1NC(=O)C(=O)Cc1nc2ccccc2o1`, the EC50 is > 22.4 µM and the concentration for half-maximal inhibition (IC50) is > 22.4 µM.
Turning to `Nc1cc(Cl)ccc1N1C(=O)CCC1=O`, the EC50 was 166 µM and the IC50 was > 200 µM.
Taken in the same sequence, the figures for `O=C1c2cscc2C(=O)c2c(OCc3ccccc3)ccc(OCc3ccccc3)c21` were > 200 µM and 4.17 µM.
Regarding `CC(CC(C)[C@H]1CCC2[C@H]3C(CC[C@@]21C)[C@@]1(C)CCC(O)C[C@H]1C[C@@H]3O)C(=O)O` (stereo partly specified), the outcome was inactive.
For `O=C(Nc1ccc(F)cc1)Nc1ccc(Nc2ccccc2)cc1`, the EC50 is > 200 µM and the IC50 is > 200 µM.
For `COc1c(Cl)cc(S(=O)O)cc1Cl`, the outcome was inactive.
On to `C/C(=N\NC(=S)NCCCNC(=S)N/N=C(\C)c1ccccn1)c1ccccn1`, for which the EC50 was > 200 µM and the IC50 was 3.16 µM.
Consider `C=C(CCCCOCOCCOC)[Si](C)(C)C`, for which the EC50 was > 138 µM and the IC50 was > 138 µM.
For `CN(C)CCn1c2ccccc2c2nc3cc4ccccc4cc3nc21`, the EC50 is > 50.1 µM and the IC50 came to 0.363 µM.
For the molecule `Cc1cccc2c1CCC21OC(=O)c2c1ccc1ccccc21` (stereo unspecified), the outcome was inactive.
As to `CCOC(CN(C)C(=S)Nc1cccc2ccccc12)OCC`, the EC50 is > 200 µM and the IC50 is 158 µM.
Taken in the same sequence, the figures for `Cn1cc(NC(=O)c2cc(NC(=O)c3cc(NC(=O)c4ccc(C(=O)Nc5cn(C)c(C(=O)Nc6cn(C)c(C(=O)Nc7cn(C)c(C(=O)NCCC(=N)N)n7)n6)n5)cc4)cn3C)cn2C)cc1C(=O)NCCC(=N)N` were > 33.1 µM and 6.61 µM.
Taken in the same sequence, the figures for `Cc1ccc(/C([O-])=C(\C(=S)Nc2cccc(Cl)c2)[n+]2ccccc2)cc1` were > 200 µM and 25.1 µM.
Taken in the same sequence, the figures for `O=C(N=C1SCCN1C(=O)C(C(F)(F)F)C(F)(F)F)C(C(F)(F)F)C(F)(F)F` were > 200 µM and > 200 µM.
Turning to `Oc1ccc(CCc2nc3ccccc3[nH]2)cc1`, the EC50 is > 200 µM and the half-maximal inhibitory concentration (IC50) stood at 42.7 µM.
As to `CC(C)N(C(=O)C12C3C4C5C3C1(C(=O)O)C5C42)C(C)C` (stereo unspecified), the EC50 is > 661 µM and the IC50 is > 661 µM.
On to `Cc1oc2ccccc2c(=O)c1CN1CCN(c2ccccn2)CC1`, for which the EC50 was > 214 µM and the IC50 worked out at 129 µM.
With `N#CC(C#N)=C1SCC(=O)CS1`, the outcome was inactive.
On to `CCC1(C)C=Cc2c(cc(O)c3c(=O)c4ccccc4n(C)c23)O1` (stereo unspecified), for which the EC50 is > 200 µM and the IC50 is > 200 µM.
In the case of `CCOc1ccnc2c(OC)c(C)c3nc4ccccc4nc3c12`, the EC50 is > 100 µM and the IC50 was > 100 µM.
Regarding `COc1cc2ccnc(-c3n[nH]c4cc(OC)c(OC)cc34)c2cc1OC`, the outcome was inactive.
As for `O=C1C=C(N2CCOCC2)C(=O)c2nccnc21`, the EC50 is > 15.5 µM and the IC50 was 10.2 µM.
Taken in the same sequence, the figures for `CCN(CC)CC(=O)N1CCc2c([nH]c3ccccc23)C1c1cccnc1` (stereo unspecified) were > 138 µM and > 138 µM.
Turning to `O=c1c2c3c(sc2nc2n1N=CN(c1ccccc1)C2)CCCC3`, the EC50 was > 200 µM and the IC50 is > 200 µM.
As to `CON(C)c1nc(Cl)nc(Cl)n1`, the EC50 was > 200 µM and the IC50 is > 200 µM.
`Cc1ccccc1OP(=S)(Oc1ccccc1C)Oc1ccccc1C`: the EC50 is > 200 µM and the IC50 came out at 35.5 µM.
Taken in the same sequence, the figures for `O=C1/C(=C/c2ccc(O)cc2)Oc2cc(O)ccc21` were > 204 µM and 66.1 µM.
On to `O=C(N/N=C/c1ccc(Cl)cc1)c1ccccc1Nc1ccccc1C(=O)N/N=C/c1ccc(Cl)cc1`, for which the EC50 is 55 µM and the IC50 is > 200 µM.
Take `NC(=O)NCCCC(NC(=O)OCCCCn1ccc(=O)[nH]c1=O)C(=O)O` (stereo unspecified): the EC50 was > 200 µM and the IC50 was > 200 µM.
Regarding `O=C(/C=C/c1ccccc1)NC(=S)NCc1ccco1`, the EC50 is > 200 µM and the IC50 is > 200 µM.
As to `CCn1cc(C(=O)O)c(=O)c2cc(Cl)c(-n3cccc3)cc21`, the result was inactive.
Turning to `O=c1cc2ccccc2nn1Cc1ccccc1`, the EC50 is > 21.9 µM and the IC50 was > 21.9 µM.
Consider `CCOC(=O)C(NC(=O)c1ccccc1)(Nc1ccc(S(=O)(=O)Nc2cc(C)nc(C)n2)cc1)C(F)(F)F` (stereo unspecified), for which the EC50 was > 200 µM and the IC50 was > 200 µM.
On to `O=C(/C=C/c1c(O)ccc2ccccc12)c1ccccc1`, for which the EC50 is > 182 µM and the IC50 was > 100 µM.
For `Cc1cc2c(C(C)C)c(O)c(O)c(C=O)c2c(O)c1-c1c(C)cc2c(C(C)C)c(O)c(O)c(C=O)c2c1O`, the EC50 was > 200 µM, the result was inactive and the IC50 came to 1.23 µM.
As for `CC1=CC(=O)C(=C(C)C)CC1`, the EC50 was > 200 µM and the IC50 was 129 µM.
Take `Cc1cccc(C(=O)NCCN(C)C)c1[N+](=O)[O-]`: the EC50 is > 200 µM and the IC50 was > 200 µM.
As to `COc1ccc(C2=CC3CCC2C3)cc1` (stereo unspecified), the outcome was inactive.
Still for that read-out and setting: to `COc1ccc2c3c1C(=O)CCC3CO2` (stereo unspecified) belongs “inactive”.
With `CNC(=O)CN1CC(=O)N(C)C(=O)C1`, the EC50 was > 1260 µM and the IC50 was > 1260 µM.
As to `N#CCCN(CCCN(C(=O)Nc1ccc(NC(=O)N(CCCN(CCC#N)C(N)=O)c2ccccc2)cc1)c1ccccc1)C(N)=O`, the EC50 is > 200 µM and the IC50 is > 200 µM.
Turning to `CCC(=S)N(C)O`, the EC50 is > 20.9 µM and the IC50 amounted to 0.174 µM.
Taken in the same sequence, the figures for `C/C=C(C)/C=C/CC(C)CCC=C(C)C` (stereo unspecified) were > 200 µM and 85.1 µM.
